Experimental data from PMC5218480 (PLoS ONE, 2017).

Tested on: MV-4-11 cells
Assay: Gene expression microarray analysis (Affymetrix PrimeView) and GSEA
Assay type: cell-based, human
Design: RFU PODN (11730768_x_at) / Fold change /veh PODN (11730768_x_at) / RFU LINC00158 (11744669_a_at) / Fold change /veh LINC00158 (11744669_a_at) / RFU DUSP10 (11751237_a_at) / Fold change /veh DUSP10 (11751237_a_at) / RFU ID3 (11757404_x_at) / Fold change /veh ID3 (11757404_x_at) / RFU PLEKHG5 (11737974_s_at) / Fold change /veh PLEKHG5 (11737974_s_at) / RFU LRRC4B (11730491_at) / Fold change /veh LRRC4B (11730491_at) / RFU GIMAP4 (11747438_a_at) / Fold change /veh GIMAP4 (11747438_a_at) / RFU KRT8 (11758183_x_at) / Fold change /veh KRT8 (11758183_x_at) / RFU CNN1 (11734310_a_at) / Fold change /veh CNN1 (11734310_a_at) / RFU VPS37D (11726825_at) / Fold change /veh VPS37D (11726825_at) / RFU C10orf10 (11716522_x_at) / Fold change /veh C10orf10 (11716522_x_at) / RFU KIR2DL2 /// KIR2DL4 /// KIR2DL5A /// KIR2DL5B /// KIR2DS1 /// KIR2DS2 /// KIR2DS3 /// KIR2DS4 /// KIR3DL3 /// KIR3DL3 /// KIR3DS1 (11738374_at) / Fold change /veh KIR2DL2 /// KIR2DL4 /// KIR2DL5A /// KIR2DL5B /// KIR2DS1 /// KIR2DS2 /// KIR2DS3 /// KIR2DS4 /// KIR3DL3 /// KIR3DL3 /// KIR3DS1 (11738374_at) / RFU C1QL1 (11718748_at) / Fold change /veh C1QL1 (11718748_at) / RFU TMPRSS4 (11747572_a_at) / Fold change /veh TMPRSS4 (11747572_a_at) / RFU HAMP (11756126_x_at) / Fold change /veh HAMP (11756126_x_at) / RFU RNFT2 (11725882_a_at) / Fold change /veh RNFT2 (11725882_a_at) / RFU NR4A2 (11747474_a_at) / Fold change /veh NR4A2 (11747474_a_at) / RFU ABCC12 (11746883_a_at) / Fold change /veh ABCC12 (11746883_a_at) / RFU TMEM136 (11760407_x_at) / Fold change /veh TMEM136 (11760407_x_at) / RFU CLDN22 /// WWC2 (11732394_at) / Fold change /veh CLDN22 /// WWC2 (11732394_at) / RFU HLA-DPB1 (11760878_x_at) / Fold change /veh HLA-DPB1 (11760878_x_at) / RFU SPINT1 (11716480_a_at) / Fold change /veh SPINT1 (11716480_a_at) / RFU GAP43 (11754022_s_at) / Fold change /veh GAP43 (11754022_s_at) / RFU A4GNT (11735810_at) / Fold change /veh A4GNT (11735810_at) / RFU PRB3 (11715151_x_at) / Fold change /veh PRB3 (11715151_x_at) / RFU TUBB4B (11761932_at) / Fold change /veh TUBB4B (11761932_at) / RFU CAPN14 (11732068_a_at) / Fold change /veh CAPN14 (11732068_a_at) / RFU TMCC2 (11721928_a_at) / Fold change /veh TMCC2 (11721928_a_at) / RFU IRGQ (11745062_a_at) / Fold change /veh IRGQ (11745062_a_at) / RFU FAM174B (11720279_a_at) / Fold change /veh FAM174B (11720279_a_at) / RFU TMPRSS4 (11748680_a_at) / Fold change /veh TMPRSS4 (11748680_a_at) / RFU FAM212B (11763350_a_at) / Fold change /veh FAM212B (11763350_a_at) / RFU PLEKHG5 (11743358_a_at) / Fold change /veh PLEKHG5 (11743358_a_at) / RFU ZSCAN30 (11745921_a_at) / Fold change /veh ZSCAN30 (11745921_a_at) / RFU CMKLR1 (11741424_a_at) / Fold change /veh CMKLR1 (11741424_a_at) / RFU LOC101060620 /// MAPK8IP1 (11723275_at) / Fold change /veh LOC101060620 /// MAPK8IP1 (11723275_at) / RFU SPTSSB (11747773_x_at) / Fold change /veh SPTSSB (11747773_x_at) / RFU PRSS12 (11739890_at) / Fold change /veh PRSS12 (11739890_at) / RFU BIN1 (11741810_x_at) / Fold change /veh BIN1 (11741810_x_at) / RFU WNT11 (11732464_a_at) / Fold change /veh WNT11 (11732464_a_at) / RFU C10orf10 (11716521_a_at) / Fold change /veh C10orf10 (11716521_a_at) / RFU C5orf56 (11738089_at) / Fold change /veh C5orf56 (11738089_at) / RFU CYB561 (11721691_x_at) / Fold change /veh CYB561 (11721691_x_at) / RFU ANKRD19P (11752326_a_at) / Fold change /veh ANKRD19P (11752326_a_at) / RFU OR2T12 /// OR2T33 /// OR2T8 (11738714_s_at) / Fold change /veh OR2T12 /// OR2T33 /// OR2T8 (11738714_s_at) / RFU VCAN (11748164_a_at) / Fold change /veh VCAN (11748164_a_at) / RFU JSRP1 (11732532_at) / Fold change /veh JSRP1 (11732532_at) / RFU KRTAP10-11 (11738290_x_at) / Fold change /veh KRTAP10-11 (11738290_x_at) / RFU MYO3A (11730013_a_at) / Fold change /veh MYO3A (11730013_a_at) / RFU EBF3 (11725865_a_at) / Fold change /veh EBF3 (11725865_a_at) / RFU CAMK2N1 (11719241_x_at) / Fold change /veh CAMK2N1 (11719241_x_at) / RFU C5orf56 (11738088_a_at) / Fold change /veh C5orf56 (11738088_a_at) / RFU OLFML3 (11715873_a_at) / Fold change /veh OLFML3 (11715873_a_at) / RFU LOC100653217 /// NTM (11731650_a_at) / Fold change /veh LOC100653217 /// NTM (11731650_a_at) / RFU MAPK11 (11762145_a_at) / Fold change /veh MAPK11 (11762145_a_at) / RFU FIZ1 (11724087_x_at) / Fold change /veh FIZ1 (11724087_x_at) / RFU OASL (11726364_x_at) / Fold change /veh OASL (11726364_x_at) / RFU SOX15 (11748057_x_at) / Fold change /veh SOX15 (11748057_x_at) / RFU CD79A (11719716_a_at) / Fold change /veh CD79A (11719716_a_at) / RFU HIST1H1D (11736915_at) / Fold change /veh HIST1H1D (11736915_at) / RFU CASKIN2 (11723855_a_at) / Fold change /veh CASKIN2 (11723855_a_at) / RFU LOC730098 (11760151_x_at) / Fold change /veh LOC730098 (11760151_x_at) / RFU OR4N2 (11742367_at) / Fold change /veh OR4N2 (11742367_at) / RFU PRRT2 (11749266_a_at) / Fold change /veh PRRT2 (11749266_a_at) / RFU SNX32 (11753110_a_at) / Fold change /veh SNX32 (11753110_a_at) / RFU CDHR5 (11726645_a_at) / Fold change /veh CDHR5 (11726645_a_at) / RFU RCAN1 (11760418_a_at) / Fold change /veh RCAN1 (11760418_a_at) / RFU FAM167A (11723789_a_at) / Fold change /veh FAM167A (11723789_a_at) / RFU FAM26E (11764081_at) / Fold change /veh FAM26E (11764081_at) / RFU ISYNA1 (11749810_s_at) / Fold change /veh ISYNA1 (11749810_s_at) / RFU ACY1 (11761880_at) / Fold change /veh ACY1 (11761880_at) / RFU 11764098_at / Fold change /veh 11764098_at / RFU SAMD14 (11745864_x_at) / Fold change /veh SAMD14 (11745864_x_at) / RFU NPB (11741838_a_at) / Fold change /veh NPB (11741838_a_at) / RFU TMPRSS6 (11731388_a_at) / Fold change /veh TMPRSS6 (11731388_a_at) / RFU KRTAP10-2 (11738614_at) / Fold change /veh KRTAP10-2 (11738614_at) / RFU ARHGAP8 /// PRR5-ARHGAP8 (11727945_x_at) / Fold change /veh ARHGAP8 /// PRR5-ARHGAP8 (11727945_x_at) / RFU KRTAP5-7 /// NADSYN1 (11734609_at) / Fold change /veh KRTAP5-7 /// NADSYN1 (11734609_at) / RFU RASL12 (11751679_a_at) / Fold change /veh RASL12 (11751679_a_at) / RFU CDKN2B (11736163_a_at) / Fold change /veh CDKN2B (11736163_a_at) / RFU PRF1 (11729649_at) / Fold change /veh PRF1 (11729649_at) / RFU, ZNF638 /// ZNF638-IT1 / Fold change vs veh, ZNF638 /// ZNF638-IT1 / RFU, PANK3 / Fold change vs veh, PANK3 / RFU, SH3YL1 / Fold change vs veh, SH3YL1 / RFU, ZEB2 / Fold change vs veh, ZEB2 / RFU, NRIP1 / Fold change vs veh, NRIP1 / RFU, PTTG1IP / Fold change vs veh, PTTG1IP / RFU, CAPN2 / Fold change vs veh, CAPN2 / RFU, MED14 / Fold change vs veh, MED14 / RFU, SNORA58 / Fold change vs veh, SNORA58 / RFU, C1orf63 / Fold change vs veh, C1orf63 / RFU, LRRFIP1 / Fold change vs veh, LRRFIP1 / RFU, NDUFAF7 / Fold change vs veh, NDUFAF7 / RFU, SLC12A2 / Fold change vs veh, SLC12A2 / RFU, IBTK / Fold change vs veh, IBTK / RFU, ESF1 / Fold change vs veh, ESF1 / Fold change vs veh, TMEM50B / RFU, TAOK1 / Fold change vs veh, TAOK1 / RFU, ACBD3 / Fold change vs veh, ACBD3 / RFU, TMA16 / Fold change vs veh, TMA16 / RFU, RWDD3 / Fold change vs veh, RWDD3 / RFU, BCAT1 / Fold change vs veh, BCAT1 / RFU, EDEM3 / Fold change vs veh, EDEM3 / RFU, TMEM33 / Fold change vs veh, TMEM33 / RFU, WDR75 / Fold change vs veh, WDR75 / RFU, AHCTF1 / Fold change vs veh, AHCTF1 / RFU, TFRC / Fold change vs veh, TFRC / RFU, ZDHHC17 / Fold change vs veh, ZDHHC17 / RFU, NOM1 / Fold change vs veh, NOM1 / RFU, ARL8B / Fold change vs veh, ARL8B / RFU, ZBTB11 / Fold change vs veh, ZBTB11 / RFU, TAMM41 / Fold change vs veh, TAMM41 / RFU, KIAA1704 /// LOC100996395 / Fold change vs veh, KIAA1704 /// LOC100996395 / RFU, ING1 / Fold change vs veh, ING1 / RFU, TRMT61B / Fold change vs veh, TRMT61B / RFU, FUBP3 / Fold change vs veh, FUBP3 / RFU, TP53 / Fold change vs veh, TP53 / RFU, TNKS2 / Fold change vs veh, TNKS2 / RFU, ZFP14 / Fold change vs veh, ZFP14 / RFU, ACTR2 / Fold change vs veh, ACTR2 / RFU, PPP3R1 / Fold change vs veh, PPP3R1 / RFU, PIK3R1 / Fold change vs veh, PIK3R1 / RFU, HNRNPA1 / Fold change vs veh, HNRNPA1 / RFU, RNF170 / Fold change vs veh, RNF170 / RFU, ZNF28 / Fold change vs veh, ZNF28 / RFU, RNGTT / Fold change vs veh, RNGTT / RFU, OGT / Fold change vs veh, OGT / RFU, BRD1 / Fold change vs veh, BRD1 / RFU, MARS / Fold change vs veh, MARS / RFU, ZNF655 / Fold change vs veh, ZNF655 / RFU, FAHD1 / Fold change vs veh, FAHD1 / RFU, BDP1 / Fold change vs veh, BDP1 / RFU, LRRCC1 / Fold change vs veh, LRRCC1 / RFU, ARID1A / Fold change vs veh, ARID1A / RFU, ZNF146 / Fold change vs veh, ZNF146 / RFU, ZNF330 / Fold change vs veh, ZNF330 / RFU, GPN3 / Fold change vs veh, GPN3 / RFU, C9orf123 / Fold change vs veh, C9orf123 / RFU, N4BP2L2 / Fold change vs veh, N4BP2L2 / RFU, ARFIP1 / Fold change vs veh, ARFIP1 / RFU, FAM179B / Fold change vs veh, FAM179B / RFU, BCL10 / Fold change vs veh, BCL10 / RFU, UHRF1BP1L / Fold change vs veh, UHRF1BP1L / RFU, BET1 / Fold change vs veh, BET1 / RFU, CNOT2 / Fold change vs veh, CNOT2 / RFU, ZNF268 / Fold change vs veh, ZNF268 / Fold change vs veh, ZNF507 / RFU, DGCR2 / Fold change vs veh, DGCR2 / RFU, WDSUB1 / Fold change vs veh, WDSUB1 / Fold change vs veh, HSP90B1 /// MIR3652 / RFU, ADSS / Fold change vs veh, ADSS / RFU, GK / Fold change vs veh, GK / RFU, ZNF148 / Fold change vs veh, ZNF148 / RFU, TAF9 / Fold change vs veh, TAF9 / RFU, SLC1A5 / Fold change vs veh, SLC1A5 / RFU, SLMO2 / Fold change vs veh, SLMO2 / RFU, ABCC4 / Fold change vs veh, ABCC4 / RFU, LOC101060439 /// RAP1B / Fold change vs veh, LOC101060439 /// RAP1B / RFU, RFX7 / Fold change vs veh, RFX7 / RFU, GTPBP10 / Fold change vs veh, GTPBP10 / RFU, CNEP1R1 / Fold change vs veh, CNEP1R1 / RFU, BIVM-ERCC5 /// ERCC5 / Fold change vs veh, BIVM-ERCC5 /// ERCC5 / RFU, ILF3 / Fold change vs veh, ILF3 / RFU 11762660_at / Fold change /veh 11762660_at / RFU VCAN (11757783_s_at) / Fold change /veh VCAN (11757783_s_at) / RFU DDX43 (11728927_at) / Fold change /veh DDX43 (11728927_at) / RFU KRT8 (11758188_x_at) / Fold change /veh KRT8 (11758188_x_at) / RFU NKD1 (11759106_at) / Fold change /veh NKD1 (11759106_at) / RFU SRD5A1 (11742802_a_at) / Fold change /veh SRD5A1 (11742802_a_at) / RFU TPSAB1 /// TPSB2 (11721975_s_at) / Fold change /veh TPSAB1 /// TPSB2 (11721975_s_at) / RFU GSTM3 (11746129_a_at) / Fold change /veh GSTM3 (11746129_a_at) / RFU IL23R (11737362_x_at) / Fold change /veh IL23R (11737362_x_at) / RFU TMEM51 (11727254_a_at) / Fold change /veh TMEM51 (11727254_a_at) / RFU PIWIL2 (11732686_x_at) / Fold change /veh PIWIL2 (11732686_x_at) / RFU ORM1 (11744905_x_at) / Fold change /veh ORM1 (11744905_x_at) / RFU CCDC152 (11743942_at) / Fold change /veh CCDC152 (11743942_at) / RFU ECM1 (11717891_a_at) / Fold change /veh ECM1 (11717891_a_at) / RFU IL23R (11748794_a_at) / Fold change /veh IL23R (11748794_a_at) / RFU TNFAIP8L3 (11732012_x_at) / Fold change /veh TNFAIP8L3 (11732012_x_at) / RFU MBOAT4 (11741988_at) / Fold change /veh MBOAT4 (11741988_at) / RFU 11764193_at / Fold change /veh 11764193_at / RFU TMEM53 (11763286_at) / Fold change /veh TMEM53 (11763286_at) / RFU MAGEB2 (11727129_at) / Fold change /veh MAGEB2 (11727129_at) / RFU TMEM200A (11744735_a_at) / Fold change /veh TMEM200A (11744735_a_at) / RFU CCDC152 (11751479_a_at) / Fold change /veh CCDC152 (11751479_a_at) / RFU FAM211A (11726209_a_at) / Fold change /veh FAM211A (11726209_a_at) / RFU RGS16 (11746705_a_at) / Fold change /veh RGS16 (11746705_a_at) / RFU VCAN (11755009_s_at) / Fold change /veh VCAN (11755009_s_at) / RFU RHOB (11743442_s_at) / Fold change /veh RHOB (11743442_s_at) / RFU RGS16 (11720943_a_at) / Fold change /veh RGS16 (11720943_a_at) / RFU RGS16 (11720944_at) / Fold change /veh RGS16 (11720944_at) / RFU, VPS4B / Fold change vs veh, VPS4B / RFU, CREB1 / Fold change vs veh, CREB1 / RFU, DNAJC13 / Fold change vs veh, DNAJC13 / RFU, GNAQ / Fold change vs veh, GNAQ / RFU, CDK5R1 / Fold change vs veh, CDK5R1 / RFU, ZRANB3 / Fold change vs veh, ZRANB3 / RFU, CUL4A / Fold change vs veh, CUL4A / RFU, CCNY / Fold change vs veh, CCNY / RFU, UFL1 / Fold change vs veh, UFL1 / RFU, COG3 / Fold change vs veh, COG3 / RFU, DIAPH2 / Fold change vs veh, DIAPH2 / RFU, SKA2 / Fold change vs veh, SKA2 / RFU, AFF3 / Fold change vs veh, AFF3 / RFU, LMF1 / Fold change vs veh, LMF1 / RFU, IPO11 / Fold change vs veh, IPO11 / RFU, DFFB / Fold change vs veh, DFFB / RFU, FOXP1 / Fold change vs veh, FOXP1 / RFU, CARD8 / Fold change vs veh, CARD8 / RFU, STRN3 / Fold change vs veh, STRN3 / RFU, ADK / Fold change vs veh, ADK / RFU, RASSF2 / Fold change vs veh, RASSF2 / RFU, WIPF1 / Fold change vs veh, WIPF1 / RFU, LARP1B / Fold change vs veh, LARP1B / RFU, RASA1 / Fold change vs veh, RASA1 / RFU, RB1 / Fold change vs veh, RB1 / RFU, PPFIA1 / Fold change vs veh, PPFIA1 / RFU, MAT2A / Fold change vs veh, MAT2A / RFU, CCT5 / Fold change vs veh, CCT5 / RFU, WDR92 / Fold change vs veh, WDR92 / RFU, CUX1 / Fold change vs veh, CUX1 / RFU, TTC7A / Fold change vs veh, TTC7A / RFU, TMEM135 / Fold change vs veh, TMEM135 / RFU, DEPTOR / Fold change vs veh, DEPTOR / RFU, CPM / Fold change vs veh, CPM / RFU, DNAJB6 / Fold change vs veh, DNAJB6 / RFU, CACNA2D3 / Fold change vs veh, CACNA2D3 / RFU, DTX4 / Fold change vs veh, DTX4 / RFU, TFCP2 / Fold change vs veh, TFCP2 / RFU, GMCL1 /// GMCL1P1 / Fold change vs veh, GMCL1 /// GMCL1P1 / RFU, AEBP2 / Fold change vs veh, AEBP2 / RFU, SNHG1 /// SNORD22 /// SNORD25 /// SNORD26 /// SNORD27 /// SNORD28 /// SNORD29 /// SNORD31 / Fold change vs veh, SNHG1 /// SNORD22 /// SNORD25 /// SNORD26 /// SNORD27 /// SNORD28 /// SNORD29 /// SNORD31 / Fold change (Aza/veh), C12orf56 (ProbeSet 11735607_a_at) / Fold change (ACY-1035/veh), C12orf56 (ProbeSet 11735607_a_at) / Fold change (Aza/veh), FGFR1OP (ProbeSet 11751329_s_at) / Fold change (ACY-1035/veh), FGFR1OP (ProbeSet 11751329_s_at) / Fold change (Aza/veh), VPS36 (ProbeSet 11739960_a_at) / Fold change (ACY-1035/veh), VPS36 (ProbeSet 11739960_a_at) / RFU SYPL1 (11715823_x_at) / Fold change /veh SYPL1 (11715823_x_at) / RFU IGFBP7 (11715501_s_at) / Fold change /veh IGFBP7 (11715501_s_at) / RFU REEP3 (11722064_at) / Fold change /veh REEP3 (11722064_at) / RFU IGLL1 (11728026_x_at) / Fold change /veh IGLL1 (11728026_x_at): dose or concentration left out as unconfirmed
Details: ProbeSet 11716999_a_at; LIST D

## Nc1ccc(-c2cccs2)cc1NC(=O)c1ccc2c(c1)cc(C1CC1)n2CCN1CCOCC1 [ACY-1035]
  RFU, RASA1: 200.63 RFU
